The source of these data is PubChem BioAssay AID179 (DTP/NCI, 2004).

Active and inactive are the calls of the source.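 How the source made its calls: active means compounds giving half or more protection of infected cells from virus-caused growth loss, again on retest; inactive means the rest.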

The assay deals with CEM cells HIV-1 protection, formazan growth assay. Briefly: NCI AIDS Antiviral Assay. Particulars: for IC50: measured here: growth of uninfected CEM cells. In a few lines: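 Human CEM cells, uninfected and HIV-1-infected, exposed to five drug concentrations; growth measured by soluble formazan assay and scored as percent protection from infection, with protecting compounds retested.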

In the case of `N#Cc1cccc2c1Sc1ccccc1N2`, the EC50 is above 200 µM and the IC50 was 12 µM.

As to `C=C1CCc2ccccc2C1=O`, the EC50 is above 200 µM and the 50% inhibitory concentration (IC50) came to 31.6 µM. As for `CC(C)CCC[C@@H](C)[C@H]1CC[C@H]2[C@@H]3CC[C@H]4C[C@@H](CCCC(c5ccc(O)c(C(=O)O)c5)c5ccc(O)c(C(=O)O)c5)CC[C@]4(C)[C@H]3CC[C@]12C`, the EC50 was 64.6 µM and the IC50 is above 100 µM. For `COC(=O)C(Cc1c[nH]c2ccccc12)NP(=O)(O)OCC1OC(n2cc(I)c(=O)[nH]c2=O)CC1O` (configuration not stated) the same measures were above 200 µM and above 200 µM. Turning to `COc1cc(C(=O)O)c(C(=O)c2ccc(C#N)cc2)cc1OC`, the EC50 was above 200 µM and the IC50 was above 200 µM. As for `COC(=O)CP(=O)(OC)OCC(F)(F)F` (configuration not stated), the EC50 is above 1000 µM and the IC50 came out at 832 µM. In the case of `Cc1cc2c(cc1C)NC(=O)C(C)CN2` (configuration not stated), the EC50 was above 200 µM and the IC50 was above 200 µM. On to `COC(OC)(c1ccccc1)C(Br)Br`, for which the result was inactive.

`CN1C(=O)C2C=C3CCCCC3=CC2N(C)C1=O` (configuration not stated): the EC50 was above 200 µM and the IC50 is above 200 µM.

With `NC(CCc1nc(-c2ccccc2)cs1)C(=O)O` (configuration not stated), the result was inactive.

In the case of `CC1=NN(c2ccccc2)C(=O)C1N=Nc1ccc(S(N)(=O)=O)cc1` (configuration not stated), the outcome was inactive. With `CN(C)CCONC(=O)C12CC3CC(CC(C3)C1)C2`, the result was inactive. Same read-out and setting: as for `N#Cc1cnc(-n2[nH]c3c(c2=O)CCCC3)[nH]c1=O`, the entry is “inactive”. As for `Brc1ccc(C[N+]23CCN(CC2)CC3)cc1`, the EC50 was above 692 µM and the IC50 was above 692 µM. For `COc1ccc2c(c1)OC[C@@H]1c3cc(O)c4c(OCc5ccccc5)cccc4c3O[C@H]21`, the EC50 is above 100 µM and the IC50 worked out at 67.6 µM. Take `O=C(c1ccccc1)N1OCCCc2ccccc21`: the EC50 is above 200 µM and the IC50 turned out to be 195 µM. As to `O=C(NNC(=S)Nc1ccccc1)c1cc(-c2ccccc2)nc2ccccc12`, the EC50 is above 200 µM and the IC50 amounted to 21.9 µM.

On to `CC[C@@]1(OS(=O)(=O)O)CCC2C3CC=C4CC(O)CC[C@]4(C)C3CC[C@@]21C` (some centres not stated), for which the EC50 was 107 µM and the IC50 was found to be 224 µM. In the case of `N.N.N.N.N.O=S(=O)([O-])S(=O)(=O)[O-].[Co+3]`, the EC50 is above 42.7 µM and the IC50 is above 42.7 µM. As to `Cn1c([N+](=O)[O-])cnc1CSc1ccc(C#N)cc1`, the EC50 was 117 µM and the IC50 was above 200 µM. For `C/C(CC(=O)Nc1cc(C)ccc1C)=N/N=C(N)N` the same measures were above 52.5 µM and above 52.5 µM. As for `CC1=CC(=O)N(n2c(Cc3ccccc3)n[nH]c2=O)C1=O`, the EC50 is above 200 µM and the IC50 was above 200 µM. As to `Nc1ccc(-c2cc(C(=O)Nc3nccs3)[nH]c(=S)n2)cc1`, the EC50 is above 759 µM and the IC50 was found to be 407 µM.

With `CC(CCc1nc2ccccc2o1)C1CCC2C3CC[C@@H]4C[C@H](O)CC[C@]4(C)C3C[C@H](O)[C@]12C` (some centres not stated), the EC50 was above 50.1 µM and the IC50 is 7.24 µM. For `CCCCCCCCCCCCCCCC=C(c1cc(Cl)c(OC)c(C(=O)OC)c1)c1cc(Cl)c(OC)c(C(=O)OC)c1` the same measures were above 6.61 µM and above 6.61 µM. Regarding `CC[C@H]1CN2CCc3cc(OC)c(OC)cc3[C@@H]2C[C@@H]1C[C@@H]1c2cc(OC)c(OC)cc2CCN1N=O`, the outcome was inactive.

Consider `O=C1/C(=C/c2ccccc2)NC(=S)N1CN1CCOCC1`, for which the EC50 was above 200 µM and the IC50 amounted to 72.4 µM. For `CS(=O)(=O)N/N=C/CN1C(=O)c2ccccc2C1=O` the same measures were above 891 µM and above 891 µM. For `CCCCCCNCCCNc1c2ccccc2nc2cccc([N+](=O)[O-])c12` the same measures were above 2 µM and 0.138 µM. For the molecule `Cc1cccc(-c2nc3sc(-c4cccc(C)n4)nc3s2)n1`, the outcome was inactive. Take `Cc1cc(C)c2c(c1)CC2N` (configuration not stated): the EC50 is above 1350 µM and the IC50 was determined as 490 µM. Consider `NNC(N)=Nc1cccc2ccccc12`, for which the EC50 is above 200 µM and the IC50 was above 200 µM.

Consider `O=C(O)Cc1cccc2c1OC(c1ccccc1)C(Cl)(C(=O)c1ccccc1)C2=O` (configuration not stated), for which the EC50 was above 200 µM and the IC50 worked out at 5.5 µM. For `OC(c1ccc2c(c1)OCO2)c1ccc2c(c1)OCO2` the same measures were above 200 µM and 178 µM.

Turning to `COc1nc(N)c2c3c([nH]c2c1C#N)C(C)(C)c1ccccc1N3C`, the EC50 was above 30.2 µM and the IC50 stood at 29.5 µM. In the same order, the values of `O=C1NC(CSSCC2NC(=O)N(c3ccccc3)C2=O)C(=O)N1c1ccccc1` (configuration not stated) are above 200 µM and 1.12 µM. For `c1cc2sc3ccc(OCCCN4CCCCC4)cc3c2cc1OCCCN1CCCCC1`, the EC50 was above 93.3 µM and the IC50 stood at 1.58 µM.

`CCOC(=O)C1=NN(c2ccc(C)cc2)C2(c3ccccc3)C=C(c3ccccc3)N(C)CCN12` (configuration not stated): the EC50 was above 200 µM and the IC50 was determined as 145 µM. For `O=C1CCC2(O)c3ccccc3C2Cc2ccccc21` (configuration not stated) the same measures were above 200 µM and above 200 µM.

With `O=C1OC2C=CC1C1C(=O)OC(=O)C21` (configuration not stated), the EC50 was above 200 µM and the IC50 was above 200 µM. `Cc1cn(C2C[C@@H](/[N+]([O-])=C\c3ccccc3)C(CO[Si](C)(C)C(C)(C)C)O2)c(=O)[nH]c1=O` (some centres not stated): the EC50 was above 200 µM and the IC50 worked out at 24.5 µM. Take `C=CC1=C(C)C2=NC1=CC1=NC(=CC3=C(C)C4=C(O)C(C(=O)O)C(=C5NC(=C2)C(C)C5CCC(=O)O)C4=N3)C(CC)=C1C` (configuration not stated): the EC50 is above 39.8 µM and the IC50 is above 39.8 µM. Take `CCOC(=O)C(Sc1ccccc1)c1c(OC)cc(=O)oc1/C=[N+](/[O-])c1ccc(N(C)C)cc1` (configuration not stated): the result was inactive.

On to `C[N+]1(CCCl)CCc2cc([N+](=O)[O-])ccc2C1` (configuration not stated), for which the EC50 was above 200 µM and the IC50 is above 200 µM. As for `CC1=Nc2cc(C(=O)c3ccccc3)ccc2N=C(c2c(O)c3c(ccc4ccccc43)oc2=O)C1`, the EC50 was above 20 µM and the IC50 is above 20 µM.

Take `Cc1c2ccccc2nc(CSCc2ccccc2)[n+]1[O-]`: the EC50 is above 200 µM and the IC50 worked out at 162 µM. For the molecule `C[Si](C)(C)OC1(C#N)C2C3CC4C2C(=O)C2C4C3C21` (configuration not stated), the result was inactive. For `Sc1ccc2ccccc2c1CNC1CCCCC1`, the EC50 was above 200 µM and the IC50 was found to be 28.2 µM. For `CC(C)N(C(C)C)P(=O)(OP(=O)(c1ccc([N+](=O)[O-])cc1)N(C(C)C)C(C)C)c1ccc([N+](=O)[O-])cc1` (configuration not stated), the EC50 was above 200 µM and the IC50 came out at 151 µM. Consider `CC1=N/C(=C\c2cccc3ccccc23)C(=O)O1`, for which the EC50 was above 11.5 µM and the IC50 is above 11.5 µM. With `O=C1C2=C(CC3=C(C2)CS(=O)(=O)C3)C(=O)C2=C1CC1=C(C2)CS(=O)(=O)C1`, the EC50 is above 200 µM and the IC50 was 6.03 µM. In the same order, the values of `O=C1OC2c3ccccc3C(=O)C2(c2ccccc2)N1c1ccccc1` (configuration not stated) are above 200 µM and 126 µM. For the molecule `COc1ccccc1N1C(=O)/C(=C\c2cc(OC)c(OC)c(OC)c2)SC1c1ccccc1` (configuration not stated), the EC50 was above 200 µM and the IC50 came out at 39.8 µM.

Regarding `CC1=NN(C(=O)c2ccccc2O)C(=O)/C1=C/c1ccc([N+](=O)[O-])cc1`, the EC50 was above 53.7 µM and the IC50 is 0.0912 µM.

In the case of `COC1CC(n2ccc(=O)[nH]c2=O)OC1CO` (configuration not stated), the EC50 is above 200 µM and the IC50 was above 200 µM.

As to `CCOC(=O)c1c(NC(=O)c2ccc(OC)cc2)sc2c1CCCC2`, the EC50 is above 151 µM and the 50% inhibitory concentration (IC50) is above 151 µM. On to `O=C1CC23CCCC2(C1)CC(=O)C3` (configuration not stated), for which the EC50 is above 126 µM and the IC50 is above 126 µM. As for `COc1ccc(-c2nnc3cc(C)n4nnnc4n23)cc1OC`, the EC50 was above 200 µM and the concentration for half-maximal inhibition (IC50) is above 200 µM. In the case of `c1ccc(/C2=N\OCCCOc3ccccc32)cc1`, the EC50 is above 200 µM and the IC50 is above 200 µM.

`O=[N+]([O-])C(/C=N/Nc1ccccc1)/C=N/Nc1ccccc1`: the EC50 was above 24.5 µM and the IC50 is above 24.5 µM. With `CN1NC(=O)SC(=O)c2ccccc2C1=O`, the result was inactive. `N#Cc1ccc(Nc2nc3nc[nH]c3c(=O)[nH]2)cc1`: the EC50 is above 200 µM and the IC50 was above 200 µM. `CC(C)(C)NC(=O)CCC(CC(=O)NC(C)(C)C)S(=O)(=O)O` (configuration not stated): the EC50 is above 200 µM and the IC50 was above 200 µM. Regarding `O=C(O)CC/C(=N\Nc1nsc2ccccc12)c1ccc(Cl)cc1`, the EC50 was above 10.5 µM and the IC50 came out at 6.76 µM. As for `CSc1nnc(SCc2nn3c(=O)cc(C)nc3s2)s1`, the EC50 is above 200 µM and the IC50 is above 200 µM. Turning to `Cn1ccc(C(=O)N2CCSC2=S)c(OCc2ccccc2)c1=O`, the EC50 was above 200 µM and the IC50 amounted to 120 µM. For `CCOC(=O)C1CC(C(=O)OCC)(c2ccccc2)CCC1=O` (configuration not stated) the same measures were above 58.9 µM and 47.9 µM. With `COc1ccc(/C=C(\C2=NC(=O)CS2)c2nc3ccccc3[nH]2)cc1`, the EC50 was above 20.9 µM and the IC50 is above 20.9 µM.

In the case of `CC(=O)OC1CC[C@]2(C)C3CC[C@@]4(C)C(CCC4[C@H](C)CCCC(C)C)[C@@H]3CCC2(Br)C1` (some centres not stated), the outcome was inactive. Take `Cc1ccc(C=C(C(=O)O)C(=O)O)cc1`: the EC50 was above 1200 µM and the IC50 was above 1200 µM.

On to `CC[C@@H](C)[C@H](NC(=O)[C@H](CCCCN)NC(=O)[C@H](CCCCN)NC(=O)[C@H](CC(C)C)NC(=O)[C@@H]1CCCN1C(=O)[C@@H]1CCCN1C(=O)[C@@H](NC(=O)[C@H](CC(C)C)NC(=O)[C@H](CCCCN)NC(=O)[C@H](CCCN=C(N)N)NC(=O)[C@@H](N)C(C)C)[C@@H](C)O)C(=O)O`, for which the result was inactive.

On to `COc1cc2c(c(OC)c1OC)C1CCCCC1SCC2=O` (configuration not stated), for which the EC50 was above 155 µM and the IC50 was above 155 µM.
